{"source": "patent US5288720A", "about": "“Angiotensin II receptor blocking 2,3,6 substituted quinazolinones” (American Cyanamid Company, priority 1993, dated 1994)", "system": "ANGIOTENSIN II VASOPRESSOR RESPONSE", "assay": "AII Challenge: blockade of angiotensin II vasopressor response in conscious SHR", "assay_type": "in vivo, rat (Conscious Male Okamoto-Aoki SHR)", "details": "SHR n=2", "summary_of_the_method": "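Conscious male Okamoto-Aoki SHR (16-20 weeks, ~330 g) cannulated in aorta and vena cava under local procaine; angiotensin II (human) 0.05 and 0.1 ug/kg i.v. given before and at 30-300 min after test compound i.v., i.p. or orally. Rise in systolic pressure (mmHg) expressed as % blockade versus each rat's predose response.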", "key": {"[1]": {"details": "3 mg/kg i.v., AII 0.05 mcg/kg IV, 30 min post dose"}, "[2]": {"details": "3 mg/kg i.v., AII 0.05 mcg/kg IV, 60 min post dose"}, "[3]": {"details": "3 mg/kg i.v., AII 0.05 mcg/kg IV, 90 min post dose"}, "[4]": {"details": "3 mg/kg i.v., AII 0.05 mcg/kg IV, 120 min post dose"}, "[5]": {"details": "3 mg/kg i.v., AII 0.05 mcg/kg IV, 180 min post dose"}, "[6]": {"details": "3 mg/kg i.v., AII 0.05 mcg/kg IV, 240 min post dose"}, "[7]": {"details": "3 mg/kg i.v., AII 0.05 mcg/kg IV, 300 min post dose"}, "[8]": {"details": "3 mg/kg i.v., AII 0.1 mcg/kg IV, 30 min post dose"}, "[9]": {"details": "3 mg/kg i.v., AII 0.1 mcg/kg IV, 60 min post dose"}, "[10]": {"details": "3 mg/kg i.v., AII 0.1 mcg/kg IV, 90 min post dose"}, "[11]": {"details": "3 mg/kg i.v., AII 0.1 mcg/kg IV, 120 min post dose"}, "[12]": {"details": "3 mg/kg i.v., AII 0.1 mcg/kg IV, 180 min post dose"}, "[13]": {"details": "3 mg/kg i.v., AII 0.1 mcg/kg IV, 240 min post dose"}, "[14]": {"details": "3 mg/kg i.v., AII 0.1 mcg/kg IV, 300 min post dose"}, "[15]": {"details": "3 mg/kg p.o., AII 0.05 mcg/kg IV, 30 min post dose"}, "[16]": {"details": "3 mg/kg p.o., AII 0.05 mcg/kg IV, 60 min post dose"}, "[17]": {"details": "3 mg/kg p.o., AII 0.05 mcg/kg IV, 90 min post dose"}, "[18]": {"details": "3 mg/kg p.o., AII 0.05 mcg/kg IV, 120 min post dose"}, "[19]": {"details": "3 mg/kg p.o., AII 0.05 mcg/kg IV, 180 min post dose"}, "[20]": {"details": "3 mg/kg p.o., AII 0.05 mcg/kg IV, 240 min post dose"}, "[21]": {"details": "3 mg/kg p.o., AII 0.1 mcg/kg IV, 30 min post dose"}, "[22]": {"details": "3 mg/kg p.o., AII 0.1 mcg/kg IV, 60 min post dose"}, "[23]": {"details": "3 mg/kg p.o., AII 0.1 mcg/kg IV, 90 min post dose"}, "[24]": {"details": "3 mg/kg p.o., AII 0.1 mcg/kg IV, 120 min post dose"}, "[25]": {"details": "3 mg/kg p.o., AII 0.1 mcg/kg IV, 180 min post dose"}, "[26]": {"details": "3 mg/kg p.o., AII 0.1 mcg/kg IV, 240 min post dose"}}, "data": [{"smiles": "CCCCc1nc2ccc(C(O)C3CCN(C)C3=O)cc2c(=O)n1Cc1ccc(-c2ccccc2-c2nn[nH]n2)cc1", "note": "(single isomer, unassigned; isomer 1) [Example 32, 2-Butyl-6-[hydroxy(1-methyl-2-oxo-3-pyrrolidinyl)methyl]-3-[[2'-(1e,uns/H/ -tetrazol-5-yl)[1,1'-biphenyl]-4-yl]methyl]-4(3H)-quinazolinone isomer 1]", "values": [{"measurement": "% Inhibition of AII vasopressor response", "setting": "[1]", "result": 100, "unit": "%"}, {"measurement": "Average Change (systolic blood pressure response to AII)", "setting": "[1]", "result": 0, "unit": "mmHg"}, {"measurement": "% Inhibition of AII vasopressor response", "setting": "[2]", "result": 89, "unit": "%"}, {"measurement": "Average Change (systolic blood pressure response to AII)", "setting": "[2]", "result": 2.5, "unit": "mmHg"}, {"measurement": "% Inhibition of AII vasopressor response", "setting": "[3]", "result": 89, "unit": "%"}, {"measurement": "Average Change (systolic blood pressure response to AII)", "setting": "[3]", "result": 2.5, "unit": "mmHg"}, {"measurement": "% Inhibition of AII vasopressor response", "setting": "[4]", "result": 89, "unit": "%"}, {"measurement": "Average Change (systolic blood pressure response to AII)", "setting": "[4]", "result": 2.5, "unit": "mmHg"}, {"measurement": "% Inhibition of AII vasopressor response", "setting": "[5]", "result": 68, "unit": "%"}, {"measurement": "Average Change (systolic blood pressure response to AII)", "setting": "[5]", "result": 7.5, "unit": "mmHg"}, {"measurement": "% Inhibition of AII vasopressor response", "setting": "[6]", "result": 26, "unit": "%"}, {"measurement": "Average Change (systolic blood pressure response to AII)", "setting": "[6]", "result": 17.5, "unit": "mmHg"}, {"measurement": "% Inhibition of AII vasopressor response", "setting": "[7]", "result": -13, "unit": "%"}, {"measurement": "Average Change (systolic blood pressure response to AII)", "setting": "[7]", "result": 26.5, "unit": "mmHg"}, {"measurement": "% Inhibition of AII vasopressor response", "setting": "[8]", "result": 100, "unit": "%"}, {"measurement": "Average Change (systolic blood pressure response to AII)", "setting": "[8]", "result": 0, "unit": "mmHg"}, {"measurement": "% Inhibition of AII vasopressor response", "setting": "[9]", "result": 96, "unit": "%"}, {"measurement": "Average Change (systolic blood pressure response to AII)", "setting": "[9]", "result": 1.5, "unit": "mmHg"}, {"measurement": "% Inhibition of AII vasopressor response", "setting": "[10]", "result": 88, "unit": "%"}, {"measurement": "Average Change (systolic blood pressure response to AII)", "setting": "[10]", "result": 5, "unit": "mmHg"}, {"measurement": "% Inhibition of AII vasopressor response", "setting": "[11]", "result": 94, "unit": "%"}, {"measurement": "Average Change (systolic blood pressure response to AII)", "setting": "[11]", "result": 2.5, "unit": "mmHg"}, {"measurement": "% Inhibition of AII vasopressor response", "setting": "[12]", "result": 53, "unit": "%"}, {"measurement": "Average Change (systolic blood pressure response to AII)", "setting": "[12]", "result": 20, "unit": "mmHg"}, {"measurement": "% Inhibition of AII vasopressor response", "setting": "[13]", "result": 24, "unit": "%"}, {"measurement": "Average Change (systolic blood pressure response to AII)", "setting": "[13]", "result": 32.5, "unit": "mmHg"}, {"measurement": "% Inhibition of AII vasopressor response", "setting": "[14]", "result": 0, "unit": "%"}, {"measurement": "Average Change (systolic blood pressure response to AII)", "setting": "[14]", "result": 42.5, "unit": "mmHg"}, {"measurement": "% Inhibition of AII vasopressor response", "setting": "[15]", "result": 0, "unit": "%"}, {"measurement": "Average Change (systolic blood pressure response to AII)", "setting": "[15]", "result": 32.5, "unit": "mmHg"}, {"measurement": "% Inhibition of AII vasopressor response", "setting": "[16]", "result": 46, "unit": "%"}, {"measurement": "Average Change (systolic blood pressure response to AII)", "setting": "[16]", "result": 17.5, "unit": "mmHg"}, {"measurement": "% Inhibition of AII vasopressor response", "setting": "[17]", "result": 62, "unit": "%"}, {"measurement": "Average Change (systolic blood pressure response to AII)", "setting": "[17]", "result": 12.5, "unit": "mmHg"}, {"measurement": "% Inhibition of AII vasopressor response", "setting": "[18]", "result": 46, "unit": "%"}, {"measurement": "Average Change (systolic blood pressure response to AII)", "setting": "[18]", "result": 17.5, "unit": "mmHg"}, {"measurement": "% Inhibition of AII vasopressor response", "setting": "[19]", "result": 11, "unit": "%"}, {"measurement": "Average Change (systolic blood pressure response to AII)", "setting": "[19]", "result": 29, "unit": "mmHg"}, {"measurement": "% Inhibition of AII vasopressor response", "setting": "[20]", "result": 31, "unit": "%"}, {"measurement": "Average Change (systolic blood pressure response to AII)", "setting": "[20]", "result": 22.5, "unit": "mmHg"}, {"measurement": "% Inhibition of AII vasopressor response", "setting": "[21]", "result": 27, "unit": "%"}, {"measurement": "Average Change (systolic blood pressure response to AII)", "setting": "[21]", "result": 27.5, "unit": "mmHg"}, {"measurement": "% Inhibition of AII vasopressor response", "setting": "[22]", "result": 27, "unit": "%"}, {"measurement": "Average Change (systolic blood pressure response to AII)", "setting": "[22]", "result": 27.5, "unit": "mmHg"}, {"measurement": "% Inhibition of AII vasopressor response", "setting": "[23]", "result": 40, "unit": "%"}, {"measurement": "Average Change (systolic blood pressure response to AII)", "setting": "[23]", "result": 22.5, "unit": "mmHg"}, {"measurement": "% Inhibition of AII vasopressor response", "setting": "[24]", "result": 28, "unit": "%"}, {"measurement": "Average Change (systolic blood pressure response to AII)", "setting": "[24]", "result": 27, "unit": "mmHg"}, {"measurement": "% Inhibition of AII vasopressor response", "setting": "[25]", "result": 13, "unit": "%"}, {"measurement": "Average Change (systolic blood pressure response to AII)", "setting": "[25]", "result": 32.5, "unit": "mmHg"}, {"measurement": "% Inhibition of AII vasopressor response", "setting": "[26]", "result": 23, "unit": "%"}, {"measurement": "Average Change (systolic blood pressure response to AII)", "setting": "[26]", "result": 29, "unit": "mmHg"}]}]}
